Like-named read-outs stand apart in the source and are kept apart here.
How the values were obtained:
T98G GBM cell line = assay: Cell viability assay (Alamar Blue, 7 days), T98G; format: cell-based, human; settings: Homo sapiens, T98G, 168 h
Experimental: (§1) Cell Culture and Reagents. All cell lines were grown in a 37° C., 5% CO2, humidified environment, in media containing 1% penicillin/streptomycin. Stable cell line generation of GL261 MGMT+ was purchased from Creative Biogene. Cell culture conditions are as follows: cell lines U87, T98G, and RKO were grown in EMEM with 10% FBS. D54, GL261, GL261 MGMT+, and U118MG cell lines were grown in DMEM with 10% FBS. HCT116 cells were grown in RMPI with 10% FBS. D341 Med cells were grown in EMEM with 20% FBS. Temozolomide (TMZ) was purchased from AK Scientific. TMZ analogues were synthesized as described below. Compounds were dissolved in DMSO (1% final concentration, Fisher Chemical) for cell culture studies.
(§2) Cell Viability Assays. Cells were harvested, seeded in a 96-well plate and allowed to adhere. After three hours, compound was added to each well in DMSO (1% final concentration). Cells were incubated for seven days (unless otherwise noted) before viability was assessed by the Alamar Blue assay. Raptinal (20 μM) was used as a dead control.

HCT116 cells = assay: Cell viability assay (Alamar Blue, 7 days), HCT116; format: cell-based; settings: Homo sapiens, HCT-116, 168 h
Experimental: as §1, §2

U87 cells = assay: Killing kinetics study; format: cell-based, human
Experimental: FIG. 2A-F. (A) 7 day IC50 values (M) of compound 10 and CPZ in an expanded panel of GBM cell lines. Cell viability was assessed via the Alamar Blue assay, n≥3, error is SEM. (B-E) 7 day dose-response curves of TMZ and CPZ in cell lines with variable MGMT and MMR status. Error is SEM, n≥3. (F) Killing kinetics of CPZ compared to TMZ in the U87 cell line. Cells were treated with compound once and viability was assessed every 24 hours via Alamar Blue assay. Error is SEM, n≥2.
Killing Kinetics Study. U87 cells were seeded in seven 96 well plates starting at 19,200 cells/well (for 24 hour time point) and serially diluted by two-fold for each subsequent 24 hour time point. At each time point, cell viability was assessed via Alamar Blue assay.

[1] = tested on: genomic DNA of GL261 cells; assay: Quantitation of O6-guanine DNA adducts in cells, GL261; format: cell-based, mouse; settings: 100, 300, or 500 μM, 8 hours; LC-MS/MS
Experimental: (§3) Importantly, because CPZ was designed to release a different active species than TMZ, the alkylation pattern in a cellular context is likely different. Therefore, to assess if alkylation still occurs with CPZ, a DNA alkylation assay was performed. GL261 cells were treated with 100, 300, or 500 μM TMZ or CPZ for 8 hours after which the cells were harvested and genomic DNA was extracted and subsequently hydrolyzed to constituent deoxyribonucleosides. LC-MS/MS analysis was employed to quantify the amount of O^6-methyl-2′-deoxyguanosine (O^6-Me-dG) or O^6-propargylated-2′-O^6-deoxyguanosine (O^6-Prop-dG) in each sample.
(§4) Quantitation of O^6-guanine DNA Adducts in Cells. GL261, A172, or D54 cells were plated at 1×10^6 c/w in a 6-well plate before they were treated with compound at the indicated concentration (1% final concentration DMSO). After incubation for the indicated time, the cells were harvested and pelleted. Genomic DNA was extracted using the DNeasy Blood & Tissue Kit (Qiagen, ID: 69504). DNA was then precipitated using the following procedure: 1/10 v/v […] sodium acetate (pH 5.2) and 2.5× v/v ethanol was added to each sample which was then kept at −80° C. for 1 h. […] Hydrolyzed samples were then submitted for LC-MS/MS quantitation along with a synthetic standard. Samples were analyzed with a 5500 QTRAP LC/MS/MS system (AB Sciex) with a 1200 series HPLC system (Agilent).

[2] = tested on: genomic DNA of A172 cells; assay: Quantitation of O6-guanine DNA adducts in cells, A172; format: cell-based; settings: MGMT-negative; LC-MS/MS
Experimental: as §3, §4

genomic DNA of D54 cells = assay: Quantitation of O6-guanine DNA adducts in cells, D54; format: cell-based; settings: MGMT-negative; LC-MS/MS
Experimental: as §3, §4

[3] = tested on: S. typhimurium TA100 strain; assay: Ames test, TA100; format: cell-based; settings: 30 μM; for Ames test revertant (mutated) colonies, TA100: 5 days, no S9 activation
Experimental: Next, we measured the mutagenicity of CPZ versus TMZ. TMZ and other DNA methylating chemotherapies are known mutagens, inducing G:C→A:T mutations due to erroneous recognition of O^6-methylguanine. […] CPZ and TMZ (at 30 μM) were also assessed in the E. coli WP2 uvrA pKM101 strain, which is considered one of the more sensitive Ames tester strains available.
Ames Test. Compounds were assessed at the indicated concentrations in the TA100 tester strain using the Muta-ChromoPlate 96-well microplate version of the Ames test (Environmental Bio-Detection Products, Prod. No. 5051) according to manufacturer's instructions. In brief, TA100 S. typhimurium bacteria were grown overnight and plated with compound, growth medium, and indicator (no S9 activation) in 96 well plates. Bacteria were incubated for 5 days before the number of wells per 96 well plate containing revertant colonies were identified colorimetrically.

[4] = MGMT (+) MMR (+), read-out: Activity, T98G
[5] = MGMT (−) MMR (−), 7 days, read-out: Activity, HCT116
[6] = MGMT (−)/MMR (−), 7 day, read-out: IC50, HCT116

| Compound | IC50 (T98G GBM cell line; [4]) | IC50 (HCT116 cells; [5]) | IC50 (HCT116 cells; [6]) | Time to near peak threshold of cell death (U87 cells; treated once, viability every 24 hours) | O6-alkyl-2′-deoxyguanosine adducts (O6-Me-dG for TMZ, O6-Prop-dG for CPZ), GL261 [1] | O6-dG alkylation adducts, A172 [2] | O6-dG alkylation adducts, D54 (genomic DNA of D54 cells) | Mutagenicity, TA100 [3] | Ames test revertant (mutated) colonies, TA100 [3] | IC50 (T98G GBM cell line; MGMT (+), Alamar Blue, error SEM, n ≥ 3, read-out: Seven-day IC50, T98G) | Time to induce cell death in culture (U87 cells; at 100 μM) |
| --- | --- | --- | --- | --- | --- | --- | --- | --- | --- | --- | --- |
| C#CCn1nnc2c(Cl)ncn2c1=O [CPZ, 8-chloro-3-(prop-2-yn-1-yl)imidazo[5,1-d][1,2,3,5]tetrazin-4(3H)-one] | 27 ± 6 µM | 14 ± 16 µM | 14 µM | ≤ 72 h | no detection of O^6-Prop-dG adducts | did not harbor measurable levels of the propargyl adduct | did not harbor measurable levels of the propargyl adduct | non-mutagenic | no revertant colonies | – | – |
| Cn1nnc2c(C(N)=O)ncn2c1=O [TMZ, temozolomide, reference compound] | 570 ± 20 µM | 840 ± 30 µM | > 800 µM | – | clear dose-dependent increase | dose-dependent increase in methyl adducts | dose-dependent increase in methyl adducts | mutagenic | 35/96 | > 550 µM | 5 to 10 days |

Source: patent US20250129083A1, “IMIDAZOTETRAZINE COMPOUNDS AND TREATMENT OF TMZ-RESISTANT CANCERS” (THE BOARD OF TRUSTEES OF THE UNIVERSITY OF ILLINOIS, priority 2022, published 2025)
